Test results: ChEMBL document CHEMBL3885881, “DrugMatrix”

Species: Rattus norvegicus
Type: toxicity, organism-based, Sprague-Dawley
Settings: in vivo, ip, route intraperitoneal, vehicle 100 % SALINE; for ABSOLUTE EOSINOPHIL / ABSOLUTE LYMPHOCYTE / ABSOLUTE MONOCYTE / ABSOLUTE SEGMENTED NEUTROPHIL / BASOPHIL / EOSINOPHIL / ERYTHROCYTE COUNT / HEMATOCRIT / HEMOGLOBIN / LEUKOCYTE COUNT / LYMPHOCYTE / MEAN CORPUSCULAR HEMOGLOBIN / MEAN CORPUSCULAR HEMOGLOBIN CONCENTRATION / MEAN CORPUSCULAR VOLUME / MONOCYTE / NEUTROPHIL / NUCLEATED RED BLOOD CELLS / PLATELET COUNT: tissue Blood; for ALANINE AMINOTRANSFERASE / ALBUMIN / ALKALINE PHOSPHATASE / ASPARTATE AMINOTRANSFERASE / BLOOD UREA NITROGEN / CARBON DIOXIDE / CHLORIDE / CHOLESTEROL / CREATINE PHOSPHOKINASE / CREATININE / GLUCOSE / LACTATE DEHYDROGENASE / LIPASE / PHOSPHORUS / POTASSIUM / SODIUM / TOTAL BILIRUBIN / TOTAL PROTEIN / URIC ACID: tissue Plasma
[1] = 0 mg/kg, 6 h, vehicle control, dose level Control, time 0.25 day
[2] = 0 mg/kg, 24 h, vehicle control, dose level Control, time 1 day
[3] = 16 mg/kg, 6 h, dose level Low, time 0.25 day

Description: DrugMatrix - Regimen: Single

C=CCO [ALLYL ALCOHOL]
ABSOLUTE EOSINOPHIL [1]: 63 CELLS/uL
ABSOLUTE LYMPHOCYTE [1]: 12886.67 CELLS/uL
ABSOLUTE MONOCYTE [1]: 302.5 CELLS/uL
ABSOLUTE SEGMENTED NEUTROPHIL [1]: 2997.83 CELLS/uL
BASOPHIL [1]: 0%
EOSINOPHIL [1]: 0.33%
ERYTHROCYTE COUNT [1]: 5.45 x10E6/uL
HEMATOCRIT [1]: 34.93%
HEMOGLOBIN [1]: 13.88 G/DL
LEUKOCYTE COUNT [1]: 16.25 x10E3/uL
LYMPHOCYTE [1]: 79.17%
MEAN CORPUSCULAR HEMOGLOBIN [1]: 25.48 pg
MEAN CORPUSCULAR HEMOGLOBIN CONCENTRATION [1]: 39.77 G/DL
MEAN CORPUSCULAR VOLUME [1]: 64.13 fL
MONOCYTE [1]: 1.83%
NEUTROPHIL [1]: 18.67%
NUCLEATED RED BLOOD CELLS [1]: 0 /100WBC
PLATELET COUNT [1]: 1184.67 x10E3/uL
ALANINE AMINOTRANSFERASE [1]: 35 u/L
ALBUMIN [1]: 4.25 G/DL
ALKALINE PHOSPHATASE [1]: 281.83 u/L
ASPARTATE AMINOTRANSFERASE [1]: 79.5 u/L
BLOOD UREA NITROGEN [1]: 11.67 mg/dL
CARBON DIOXIDE [1]: 27 mmol/L
CHLORIDE [1]: 100.33 MEQ/L
CHOLESTEROL [1]: 60.67 mg/dL
CREATINE PHOSPHOKINASE [1]: 275.5 u/L
CREATININE [1]: 0.13 mg/dL
GLUCOSE [1]: 162.5 mg/dL
LACTATE DEHYDROGENASE [1]: 258.83 u/L
LIPASE [1]: 9.33 u/L
PHOSPHORUS [1]: 11.42 mg/dL
POTASSIUM [1]: 6.16 MEQ/L
SODIUM [1]: 145.08 MEQ/L
TOTAL BILIRUBIN [1]: 0.18 mg/dL
TOTAL PROTEIN [1]: 5.73 G/DL
URIC ACID [1]: 1.58 mg/dL
ABSOLUTE EOSINOPHIL [2]: 18.5 CELLS/uL
ABSOLUTE LYMPHOCYTE [2]: 12859.83 CELLS/uL
ABSOLUTE MONOCYTE [2]: 190.83 CELLS/uL
ABSOLUTE SEGMENTED NEUTROPHIL [2]: 1230.83 CELLS/uL
BASOPHIL [2]: 0%
EOSINOPHIL [2]: 0.17%
ERYTHROCYTE COUNT [2]: 5.2 x10E6/uL
HEMATOCRIT [2]: 33.25%
HEMOGLOBIN [2]: 13.37 G/DL
LEUKOCYTE COUNT [2]: 14.3 x10E3/uL
LYMPHOCYTE [2]: 89.83%
MEAN CORPUSCULAR HEMOGLOBIN [2]: 25.73 pg
MEAN CORPUSCULAR HEMOGLOBIN CONCENTRATION [2]: 40.25 G/DL
MEAN CORPUSCULAR VOLUME [2]: 64 fL
MONOCYTE [2]: 1.33%
NEUTROPHIL [2]: 8.67%
NUCLEATED RED BLOOD CELLS [2]: 0 /100WBC
PLATELET COUNT [2]: 1075.5 x10E3/uL
ALANINE AMINOTRANSFERASE [2]: 54.17 u/L
ALBUMIN [2]: 4.25 G/DL
ALKALINE PHOSPHATASE [2]: 280.67 u/L
ASPARTATE AMINOTRANSFERASE [2]: 84.67 u/L
BLOOD UREA NITROGEN [2]: 13.33 mg/dL
CARBON DIOXIDE [2]: 26.33 mmol/L
CHLORIDE [2]: 99.67 MEQ/L
CHOLESTEROL [2]: 72 mg/dL
CREATINE PHOSPHOKINASE [2]: 620 u/L
CREATININE [2]: 0.17 mg/dL
GLUCOSE [2]: 169.17 mg/dL
LACTATE DEHYDROGENASE [2]: 189.17 u/L
LIPASE [2]: 9.67 u/L
PHOSPHORUS [2]: 10.57 mg/dL
POTASSIUM [2]: 5.16 MEQ/L
SODIUM [2]: 142.2 MEQ/L
TOTAL BILIRUBIN [2]: 0.18 mg/dL
TOTAL PROTEIN [2]: 5.78 G/DL
URIC ACID [2]: 1.25 mg/dL
ABSOLUTE EOSINOPHIL [3]: 48.67 CELLS/uL
ABSOLUTE LYMPHOCYTE [3]: 11033.33 CELLS/uL
ABSOLUTE MONOCYTE [3]: 230.5 CELLS/uL
ABSOLUTE SEGMENTED NEUTROPHIL [3]: 2270.83 CELLS/uL
BASOPHIL [3]: 0%
EOSINOPHIL [3]: 0.33%
ERYTHROCYTE COUNT [3]: 5.38 x10E6/uL
HEMATOCRIT [3]: 34.4%
HEMOGLOBIN [3]: 13.45 G/DL
LEUKOCYTE COUNT [3]: 13.58 x10E3/uL
LYMPHOCYTE [3]: 81.17%
MEAN CORPUSCULAR HEMOGLOBIN [3]: 25.12 pg
MEAN CORPUSCULAR HEMOGLOBIN CONCENTRATION [3]: 39.12 G/DL
MEAN CORPUSCULAR VOLUME [3]: 64.18 fL
MONOCYTE [3]: 1.67%
NEUTROPHIL [3]: 16.83%
NUCLEATED RED BLOOD CELLS [3]: 0 /100WBC
PLATELET COUNT [3]: 997.5 x10E3/uL
ALANINE AMINOTRANSFERASE [3]: 66.83 u/L
ALBUMIN [3]: 4.27 G/DL
ALKALINE PHOSPHATASE [3]: 267.67 u/L
ASPARTATE AMINOTRANSFERASE [3]: 90 u/L
BLOOD UREA NITROGEN [3]: 9.33 mg/dL
CARBON DIOXIDE [3]: 28.5 mmol/L
CHLORIDE [3]: 100.17 MEQ/L
CHOLESTEROL [3]: 68 mg/dL
CREATINE PHOSPHOKINASE [3]: 295 u/L
CREATININE [3]: 0.14 mg/dL
GLUCOSE [3]: 153.5 mg/dL
LACTATE DEHYDROGENASE [3]: 198.83 u/L
LIPASE [3]: 11.83 u/L
PHOSPHORUS [3]: 10.27 mg/dL
POTASSIUM [3]: 5.27 MEQ/L
SODIUM [3]: 144.05 MEQ/L
TOTAL BILIRUBIN [3]: 0.1 mg/dL
TOTAL PROTEIN [3]: 5.6 G/DL
URIC ACID [3]: 1.15 mg/dL
